Assay results reported in ChEMBL document CHEMBL5344482, “Deconvoluting low yield from weak potency in direct-to-biology workflows with machine learning” (RSC Med Chem, 2024).
pIC50: −log10 of the molar value.

Key:
[1] = target: Replicase polyprotein 1ab (Severe acute respiratory syndrome coronavirus 2) (UniProt P0DTD1); test: Inhibition of SARS-Cov-2 main protease using fluorogenic substrate [5-FAM]-AVLQSGFR-[Lys(Dabcyl)]-K-amide by fluorogenic assay relative to control
[2] = target: Replicase polyprotein 1ab (Severe acute respiratory syndrome coronavirus 2, UniProt P0DTD1); test: Inhibition of SARS-Cov-2 main protease using fluorogenic substrate [5-FAM]-AVLQSGFR-[Lys(Dabcyl)]-K-amide by fluorogenic assay

Work on Nc1ncc(C(F)(F)F)cc1Cl yielded an inhibition [1] of 35%.

For NCCc1ccc(C(F)F)cc1, the pIC50 [2] was 7.30.

NCCc1cccc(Cl)c1 was tested, and the pIC50 [2] was 7.28.
